Assay results as given in PubChem BioAssay (NCI).
Values joined by “and” are separate entries in the source; they are usually repeats but may differ in a detail not shown here. Equal values may be shown once.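 Following 48 hours of exposure in 96-well plates, responses at five concentrations were used to interpolate endpoints linearly. GI50: concentration for 50% inhibition of growth. Definition used: TGI = concentration required for complete inhibition of growth.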

How the values were obtained:
Experiment in all cases: NCI tumour cell line growth inhibition, 48 h
[1] = test system: SNB-78 CNS
[2] = test system: DLD-1 colon
[3] = test system: M19-MEL melanoma
[4] = test system: LXFL 529 NSCLC
[5] = test system: DMS 273 small cell lung
[6] = test system: XF 498 CNS
[7] = test system: RXF-631 renal
[8] = test system: MDA-N

Structure (SMILES)	TGI [1]	TGI [2]	TGI [3]	TGI [4]	TGI [5] [µM]	TGI [6] [µM]	other results
OCC[N+]12CCCN1CCC2	> 100 µM	> 100 µM	> 100 µM	> 100 µM	> 100		
O=C(N/C(=C\c1cccc([N+](=O)[O-])c1)c1nc2ccccc2[nH]1)c1ccccc1	> 100 µM	> 100 µM	> 100 µM	> 100 µM	> 100	87.5	
CC(C)(C)c1cc(CCCCCCCC2(CCCCCCCc3cc(C(C)(C)C)cc(C(C)(C)C)c3)OC(COCCOCCCCCC#N)C(COCCOCCCCCC#N)O2)cc(C(C)(C)C)c1 (stereo not given)	> 100 µM	> 100 µM	> 100 µM	> 100 µM	> 100		
CCOc1cn(C2OC(CO)C(O)C2O)c(=O)[nH]c1=O (stereo not given)	> 100 µM	> 100 µM	> 100 µM	> 100 µM	> 100		
NS(=O)(=O)c1ccc(Nc2c3ccccc3nc3c(C(=O)N4CCN(CCO)CC4)cccc23)cc1	> 100 µM		> 100 µM	> 100 µM	> 100	> 100	
COc1ccc(C(=O)c2c3cc(OC)c(OC)c(OC)c3cc[n+]2C)cc1	> 100 µM	> 100 µM	> 100 µM	> 100 µM		33.3	TGI [7]: > 100 µM
Cn1c2c(c3ccccc31)CCN(CCCCN1CCN(c3ccccc3)CC1)C2=O	> 100 µM	> 100 µM	> 86.7 µM	> 100 µM	> 100	> 70.1	TGI [8]: 89.9 µM; TGI [7]: > 100 µM
CC(=O)O[C@H]1CCN2C(=O)C=CC(OCc3ccccc3)C12 (stereo not given in full)	> 100 µM	> 100 µM	> 100 µM	> 100 µM	> 100	> 100	
CC(C)(C)C(=O)Nc1cccc2oc(-c3ccccc3)cc12	> 100 µM	> 100 µM	> 100 µM	> 100 µM	> 100		TGI [7]: > 100 µM
Oc1ccc2c3c1OC1c4[nH]ncc4C[C@H]4[C@@H](C2)N(CC2CC2)CC[C@]314 (stereo not given in full)							TGI [8]: > 100 µM
Cc1ccc(/C=C(\NC(=O)c2ccccc2)c2nc3ccccc3[nH]2)cc1		> 100 µM	> 100 µM	> 100 µM			
CSc1nc2nn(Cc3ccccc3)cc2c(=O)[nH]1	> 100 µM	> 100 µM	> 100 µM	> 100 µM	> 100		
CCN(CC)CC(C)C(=O)/C=C/c1ccc(C)cc1 (stereo not given)	23.1 µM	3.16 µM	3.04 µM	3.23 µM	5.96	2.98	
NS(=O)(=O)c1ccc(NC(=O)Cc2nc3ccccc3s2)cc1	41.6 µM	29.5 µM	28.1 µM	30.7 µM	33.1	29.8	TGI [7]: 30.3 µM
O=C(/C=C/c1ccccc1O)c1ccc([N+](=O)[O-])cc1	89.1 µM	26.3 µM	36.5 µM	26.7 µM	52.6	32.7	TGI [7]: 89.9 µM
Cn1c(=O)nc2n(-c3ccc(Cl)cc3)c3cc(Cl)ccc3nc-2c1=O	> 57.4 µM	3.9 µM	3.53 µM	3.13 µM	12.5	2.73	TGI [8]: 3.09 µM; TGI [7]: 4.22 µM
CSc1ccc2c(cc1=O)[C@@H](NC(=O)c1ccc(Cl)cc1)CCc1cc(O)c(O)c(O)c1-2	> 100 µM	72.7 µM	> 100 µM	> 100 µM	> 100		
C[C@@H](NS(=O)(=O)c1ccc(NC(=O)c2ccccc2)cc1)C(=O)O		> 100 µM	> 100 µM	> 100 µM	> 100	> 100	
CC1=NN(C(=O)Nc2ccc(Cl)cc2)C(=O)C2CCC(=O)N12 (stereo not given)	> 100 µM	> 100 µM	> 100 µM	> 100 µM	> 100	> 100	

Structure (SMILES)	TGI [1]	TGI [2]	TGI [3]	TGI [4]	TGI [5] [µM]	TGI [6] [µM]	other results
CC1=C(C)C(=O)O[C@@H]([C@](C)(O)[C@]2(O)CC[C@@]3(O)[C@@H]4C[C@H](O)[C@]5(O)[C@@H](O)C=CC(=O)[C@]5(C)[C@H]4CC[C@]23C)C1							TGI [8]: > 100 µM
Oc1ccc2ccccc2c1N=Nc1cc(Cl)ccc1Cl							TGI [8]: > 50 µM
COc1cc2oc(-c3ccccc3)cc(=O)c2c(O)c1C	> 100 µM	> 100 µM	> 100 µM	> 100 µM	> 100		
O=C(O)c1ccc(C(O)(c2ccccc2)c2ccccc2)cc1							TGI [8]: > 100 µM
COc1cccc(-c2cc(=O)c3cc(N4CCOCC4)ccc3[nH]2)c1							TGI [8]: 0.0278 µM
Cc1ccc(S(=O)(=O)N2CCN(C=S)CC2)cc1	> 100 µM	> 100 µM	> 100 µM	> 100 µM	> 100		TGI [7]: > 100 µM
O=C(OCCCl)C1OC(n2cc(F)c(=O)[nH]c2=O)CC1O (stereo not given)	> 100 µM	> 100 µM	> 100 µM	> 100 µM		> 100	
COc1c(/C=C/C=O)cc2c(c1OC)OCO2							TGI [8]: 94 µM
O=C(Cc1nc2ccccc2o1)C(=O)Nc1cccc(Cl)c1	> 100 µM	> 100 µM	> 100 µM	> 100 µM		> 100	
COc1cc(/C=C2\CCC/C(=C\c3ccc(O)c(OC)c3)C2=O)ccc1O	8.03 µM	3.38 µM	3.9 µM	4.22 µM	3.07	16.8	TGI [8]: 12.5 µM
N#CCC(=O)N/N=C1/C(=O)N(c2cc(Cl)ccc2Cl)C(=O)C(=O)C1c1nc2ccccc2s1 (stereo not given)	> 100 µM	> 100 µM	> 100 µM	> 100 µM	> 100		TGI [7]: > 100 µM
O=C1C(=C([O-])c2ccccc2)C(=O)c2ccccc21.O=C1C(=C([O-])c2ccccc2)C(=O)c2ccccc21.[Mn+2]		> 100 µM	> 100 µM		> 100		GI50 [2]: 62 µM; GI50 [3]: > 100 µM; GI50 [5]: 30.5 µM
C/C(=N\OCC(O)CNCCSCc1ccccc1)c1ccccc1Cl (stereo not given)							TGI [8]: 37.4 µM
CCn1c2ccccc2c(=O)c2c(OC)ccc(OC)c21			> 100 µM	> 100 µM	> 100	> 100	TGI [7]: > 100 µM
O=[N+]([O-])c1ccc(C(Cl)C(Cl)c2ccc(C(Cl)C(Cl)c3ccc([N+](=O)[O-])cc3[N+](=O)[O-])cc2)c([N+](=O)[O-])c1 (stereo not given)	> 62 µM and 52.8 µM	6.02 µM and 0.748 µM	3.15 µM and 0.749 µM	1.9 µM and 0.377 µM	6.71	0.389	GI50 [1]: 0.762 µM; GI50 [2]: 0.251 µM; GI50 [3]: 0.256 µM; GI50 [4]: 0.179 µM; GI50 [7]: 0.336 µM; TGI [7]: 8.92 µM and 1.26 µM
CCCCCCn1c(SC)nc(COC(=O)NC)c1COC(=O)NC							TGI [8]: 36.1 µM
O=C(CCc1ccccc1)NS(=O)(=O)c1ccccc1		> 100 µM	> 100 µM	> 100 µM		> 100	TGI [7]: > 100 µM
CCC1C(C(=O)Nc2ccccc2C)=C(C)NC(C)=C1c1ccccc1C (stereo not given)	> 100 µM	> 59.7 µM	> 100 µM	> 100 µM	> 83.2	> 100	
